Inconclusive results are not listed. Calls of active or inactive are those of the source.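 How the source made its calls: active means fitted curve reaches 40% activation at or below the top valid dose, and every replicate test is called active; inconclusive means replicate tests disagree, some active and some inactive; inactive means all replicate tests inactive, including activity in the wrong direction.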
Target: Endoplasmic reticulum aminopeptidase 1 (Homo sapiens) (UniProt Q9NZ08)
Test: ERAP1 aminopeptidase activity change, dose response, biochemical, fluorescence, cherry-pick (AID 743317)
Settings: ERAP1 enzyme, Leu-AMC fluorescence, 60 min

Sequence of Endoplasmic reticulum aminopeptidase 1 (Homo sapiens) (Q9NZ08 whole entry, looked up): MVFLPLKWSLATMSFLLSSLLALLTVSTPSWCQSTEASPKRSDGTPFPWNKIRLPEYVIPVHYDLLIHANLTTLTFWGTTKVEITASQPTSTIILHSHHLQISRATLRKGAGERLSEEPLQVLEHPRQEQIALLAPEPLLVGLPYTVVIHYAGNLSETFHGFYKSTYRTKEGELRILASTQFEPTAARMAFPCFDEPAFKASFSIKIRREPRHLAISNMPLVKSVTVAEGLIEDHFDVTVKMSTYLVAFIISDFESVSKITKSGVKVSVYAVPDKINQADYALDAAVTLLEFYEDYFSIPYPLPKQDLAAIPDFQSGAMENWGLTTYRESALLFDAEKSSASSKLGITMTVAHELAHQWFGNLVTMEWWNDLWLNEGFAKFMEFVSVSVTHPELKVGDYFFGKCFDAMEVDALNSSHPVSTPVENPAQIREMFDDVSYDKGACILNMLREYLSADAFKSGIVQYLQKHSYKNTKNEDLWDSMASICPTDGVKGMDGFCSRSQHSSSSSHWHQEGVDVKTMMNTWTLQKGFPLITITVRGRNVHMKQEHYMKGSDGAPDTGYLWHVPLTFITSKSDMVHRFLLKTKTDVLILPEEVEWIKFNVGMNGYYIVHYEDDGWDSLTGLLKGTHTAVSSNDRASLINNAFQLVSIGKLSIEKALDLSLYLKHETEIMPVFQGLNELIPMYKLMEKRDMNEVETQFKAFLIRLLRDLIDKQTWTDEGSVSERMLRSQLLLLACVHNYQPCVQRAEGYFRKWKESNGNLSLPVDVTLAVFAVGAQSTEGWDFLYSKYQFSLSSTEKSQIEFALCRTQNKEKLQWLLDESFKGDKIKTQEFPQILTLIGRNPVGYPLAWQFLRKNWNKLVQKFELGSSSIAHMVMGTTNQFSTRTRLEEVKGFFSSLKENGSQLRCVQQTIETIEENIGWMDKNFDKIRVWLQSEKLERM

SMILES	AC40 [nM]	further results
Cc1noc(C)c1S(=O)(=O)Nc1ccc2c(c1)C(=O)N([C@H](C)CO)C[C@H](C)[C@H](CN(C)Cc1ccc3c(c1)OCO3)OCCCC[C@@H](C)O2	2350	
O=C(O)c1cccc(NC(=O)c2ccccc2NC(=O)c2cccc([N+](=O)[O-])c2)c1	967	
Cc1cc(=O)oc2c(CN3CCCC3)c(O)ccc12		activity increase (activation) (at 11 µM (top of the series)): -44% (inactive)
COc1ccc(-c2cc3ccc(O)cc3oc2=O)cc1OC		activity increase (activation) (at 11 µM (top of the series)): -92.7% (inactive)
CCc1c(C)c2cc(Cl)c(O)c(CN(C)C)c2oc1=O		activity increase (activation) (at 11 µM (top of the series)): -92.5% (inactive)
Cc1cc(=O)oc2c(CN3CCCC3)c(O)c(Cl)cc12		activity increase (activation) (at 11 µM (top of the series)): -73.8% (inactive)
Cc1ccc(S(=O)(=O)c2cc3ccc(O)cc3oc2=O)cc1C	2990	
C[C@@H]1CN([C@H](C)CO)C(=O)c2cc(NC(=O)Nc3ccc(F)cc3)ccc2O[C@H]1CN(C)Cc1ccc(C(=O)O)cc1	484	
C[C@@H]1CCCCO[C@@H](CN(C)Cc2ccccc2)[C@@H](C)CN([C@H](C)CO)C(=O)c2cc(NS(=O)(=O)c3cccs3)ccc2O1	158	
Cc1cc(=O)oc2cc(OCC(=O)N3CCN(C(C)c4ccccc4)CC3)c(Cl)cc12 (configuration not stated)	6220	
CCCN(C)C[C@@H]1OCCCC[C@@H](C)Oc2ccc(NS(=O)(=O)c3c(C)noc3C)cc2C(=O)N([C@H](C)CO)C[C@@H]1C	1240	
C[C@@H]1CCCCO[C@H](CN(C)Cc2ccc(C(=O)O)cc2)[C@H](C)CN([C@@H](C)CO)C(=O)c2cc(NC(=O)Nc3ccc(C(F)(F)F)cc3)ccc2O1	91.9	
COc1ccc(CNCc2c(O)c(Cl)cc3c(C)c(C)c(=O)oc23)c(OC)c1	2190	
COc1ccc(CN(C)C[C@H]2OCCCC[C@@H](C)Oc3ccc(NS(=O)(=O)c4cccs4)cc3C(=O)N([C@@H](C)CO)C[C@H]2C)cc1	1110	
CCCN(C)C[C@@H]1OCCCC[C@H](C)Oc2ccc(NC(=O)Nc3ccc(F)cc3)cc2C(=O)N([C@H](C)CO)C[C@@H]1C	4370	
O=c1ccc2cc(OC3O[C@H](CO)[C@@H](O)[C@H](O)[C@H]3O)c(O)cc2o1 (some centres not stated)		activity increase (activation) (at 5.6 µM (top of the series)): -95.4% (inactive)
N#Cc1c(N2CCNCC2)nc(-c2ccco2)c2c1CCCC2		activity increase (activation) (at 11 µM (top of the series)): -51.7% (inactive)
Cc1cc(=O)oc2c(CN3CCN(CCO)CC3)c(O)ccc12		activity increase (activation) (at 11 µM (top of the series)): -61.9% (inactive)
COc1ccc(CN(C)C[C@H]2OCCCC[C@@H](C)Oc3ccc(NS(=O)(=O)c4cccs4)cc3C(=O)N([C@@H](C)CO)C[C@@H]2C)cc1	4590	
Cc1noc(C)c1S(=O)(=O)N(C)C[C@@H]1OCCCC[C@@H](C)Oc2ccc(NS(=O)(=O)c3cccs3)cc2C(=O)N([C@@H](C)CO)C[C@@H]1C	< 80	
O=C(C[C@H]1CC[C@@H]2[C@H](COC[C@@H](O)CN2C(=O)Nc2cccc(Cl)c2)O1)N1CCCCC1	812	
C[C@@H]1CN([C@H](C)CO)C(=O)c2cccc(NC(=O)Nc3ccccc3)c2O[C@@H]1CN(C)Cc1ccc(C(=O)O)cc1	3610	
